Columns and labels:
Test in all cases: Other kinases, inhibition at 1 μM (Table 3)
Assay type in all cases: biochemical
BRSK2 = biological target: T1, BRSK2 (Homo sapiens, UniProt Q8IWQ3)
T1 construct: purchased Caliper Life Sciences
Procedure: (§1) The Aurora and other kinase assays described here were performed on two Caliper Life Sciences systems, the LC3000 and the Desktop Profiler. These provide data on enzyme activity via measurement of the relative amounts of phosphorylated or unphosphorylated fluorescently labelled substrate peptide at the end of an enzymatic reaction. These different states of peptide are resolved by applying a potential difference across the sample. The presence of a charged phosphate group on the product (as opposed to the substrate) causes a different peptide mobility between the two peptides. This is visualized by excitation of a fluorescent label on the substrate and product peptides and represented as peaks within the analysis software.
(§2) The Desktop Profiler utilizes the same principal as the LC 3000 for calculating percentage conversion of a substrate to product. Caliper Life Sciences provided proprietary flash frozen pre-made 384 well plates containing selected kinases. Each column in the 384 well plate contained a particular selected kinase. A second plate, the ‘substrate plate’ contained a mix of fluorescently labeled peptide substrate and ATP. These were arranged in columns so that transfer for substrate plate to enzyme plate provided the correct enzyme with the correct substrate/ATP concentration.
(§3) Compounds were added to a thawed enzyme plate in the desired format, in single concentrations. Reactions were initiated by transfer of the ubstrate/ATP mix from the substrate plate. The enzyme plate was incubated for 90 mins at 25 °C. The reaction was stopped by addition of […] of Stop Buffer (100 mM HEPES pH 7.5, 0.015% Brij-35, 10 mM EDTA (Sigma, E7889)).
(§4) Plates were read in a manner identical to that of the LC3000, and the ratio between substrate and product peaks provided the activity of the enzyme in that well. This was best represented by a plate heat map which colors each well by percent inhibition as compared to positive and negative controls (no inhibitors and no ATP respectively).

BTK = biological target: T2, BTK (Homo sapiens, UniProt Q06187)
T2 construct: purchased Caliper Life Sciences
Procedure: as §1, §2, §3, §4

CAMKI = biological target: T3, CAMKI (Homo sapiens, UniProt Q14012)
T3 construct: purchased Caliper Life Sciences
Procedure: as §1, §2, §3, §4

CDK2/cyclin A = biological target: T4, CDK2/cyclin A (Homo sapiens, UniProt P24941)
T4 construct: purchased Caliper Life Sciences
Procedure: as §1, §2, §3, §4

CHK1 = biological target: T5, CHK1 (Homo sapiens, UniProt O14757)
T5 construct: purchased Caliper Life Sciences
Procedure: as §1, §2, §3, §4

CHK2 = biological target: T6, CHK2 (Homo sapiens, UniProt O96017)
T6 construct: purchased Caliper Life Sciences
T6 sequence (O96017 whole entry, species assumed): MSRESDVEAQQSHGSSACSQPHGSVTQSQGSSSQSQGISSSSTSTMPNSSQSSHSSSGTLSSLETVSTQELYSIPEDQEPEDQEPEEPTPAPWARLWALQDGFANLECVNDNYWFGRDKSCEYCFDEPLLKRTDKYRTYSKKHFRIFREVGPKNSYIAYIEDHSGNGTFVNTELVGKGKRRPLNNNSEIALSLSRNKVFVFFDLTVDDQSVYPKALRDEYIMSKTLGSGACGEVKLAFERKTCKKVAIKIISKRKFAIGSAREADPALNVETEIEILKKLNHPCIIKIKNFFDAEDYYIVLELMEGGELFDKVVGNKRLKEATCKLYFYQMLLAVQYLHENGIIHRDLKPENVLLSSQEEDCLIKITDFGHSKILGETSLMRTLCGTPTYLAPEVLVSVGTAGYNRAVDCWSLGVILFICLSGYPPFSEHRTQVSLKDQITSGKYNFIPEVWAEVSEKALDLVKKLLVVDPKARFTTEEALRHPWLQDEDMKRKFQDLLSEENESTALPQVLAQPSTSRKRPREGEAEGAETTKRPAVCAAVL
Procedure: as §1, §2, §3, §4

CSK = biological target: T7, CSK (Homo sapiens, UniProt P41240)
T7 construct: purchased Caliper Life Sciences
T7 sequence (P41240 whole entry, species assumed): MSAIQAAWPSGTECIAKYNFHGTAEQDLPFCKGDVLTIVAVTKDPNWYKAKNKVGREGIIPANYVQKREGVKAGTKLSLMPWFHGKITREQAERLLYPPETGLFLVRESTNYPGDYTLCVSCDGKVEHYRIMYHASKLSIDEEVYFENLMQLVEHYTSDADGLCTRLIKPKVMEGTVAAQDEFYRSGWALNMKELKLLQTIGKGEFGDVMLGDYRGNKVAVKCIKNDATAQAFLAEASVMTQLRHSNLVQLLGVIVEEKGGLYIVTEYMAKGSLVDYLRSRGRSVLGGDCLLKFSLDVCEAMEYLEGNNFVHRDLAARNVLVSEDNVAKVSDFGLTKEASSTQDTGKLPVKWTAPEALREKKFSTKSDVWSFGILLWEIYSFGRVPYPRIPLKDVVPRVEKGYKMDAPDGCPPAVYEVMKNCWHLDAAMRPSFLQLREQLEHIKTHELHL
Procedure: as §1, §2, §3, §4

DYRK1-alpha = biological target: T8, DYRK1-alpha (Homo sapiens, UniProt Q13627)
T8 construct: purchased Caliper Life Sciences
Procedure: as §1, §2, §3, §4

DYRK3 = biological target: T9, DYRK3 (Homo sapiens, UniProt O43781)
T9 construct: purchased Caliper Life Sciences
Procedure: as §1, §2, §3, §4

IGF1-R = biological target: T10, IGF1-R (Homo sapiens, UniProt P08069)
T10 construct: purchased Caliper Life Sciences
Procedure: as §1, §2, §3, §4

IKK-beta = biological target: T11, IKK-beta (Homo sapiens, UniProt O14920)
T11 construct: purchased Caliper Life Sciences
T11 sequence (O14920 whole entry, species assumed): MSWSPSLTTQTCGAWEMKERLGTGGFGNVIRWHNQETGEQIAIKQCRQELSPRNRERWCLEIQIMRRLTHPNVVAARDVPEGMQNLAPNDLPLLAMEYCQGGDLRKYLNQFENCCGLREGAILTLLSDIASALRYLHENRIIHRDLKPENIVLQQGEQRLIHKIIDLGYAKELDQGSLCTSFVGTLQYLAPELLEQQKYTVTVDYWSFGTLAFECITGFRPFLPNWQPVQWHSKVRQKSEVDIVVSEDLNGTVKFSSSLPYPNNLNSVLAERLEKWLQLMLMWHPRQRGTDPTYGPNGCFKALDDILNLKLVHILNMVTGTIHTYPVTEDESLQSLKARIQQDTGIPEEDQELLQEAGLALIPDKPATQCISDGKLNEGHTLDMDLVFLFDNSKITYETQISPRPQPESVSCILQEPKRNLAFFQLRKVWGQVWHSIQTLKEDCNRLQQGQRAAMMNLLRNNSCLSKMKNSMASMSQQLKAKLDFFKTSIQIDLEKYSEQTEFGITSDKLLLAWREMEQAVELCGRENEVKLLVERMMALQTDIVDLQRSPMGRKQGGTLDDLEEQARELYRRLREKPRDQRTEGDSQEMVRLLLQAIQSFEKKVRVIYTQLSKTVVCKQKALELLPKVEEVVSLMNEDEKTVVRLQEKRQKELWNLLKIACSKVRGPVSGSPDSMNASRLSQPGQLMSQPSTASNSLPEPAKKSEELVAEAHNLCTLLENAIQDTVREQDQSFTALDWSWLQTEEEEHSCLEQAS
Procedure: as §1, §2, §3, §4

IRR = biological target: T12, IRR (Homo sapiens, UniProt P14616)
T12 construct: purchased Caliper Life Sciences
Procedure: as §1, §2, §3, §4

LCK = biological target: T13, LCK (Homo sapiens, UniProt P06239)
T13 construct: purchased Caliper Life Sciences
Procedure: as §1, §2, §3, §4

MAPK1 = tested on: MAPK1
Procedure: as §1, §2, §3, §4

MAPK2 = biological target: T14, MAPK2 (Homo sapiens, UniProt P28482)
T14 construct: purchased Caliper Life Sciences
Procedure: as §1, §2, §3, §4

MAPK8 = tested on: MAPK8
Procedure: as §1, §2, §3, §4

MAPKAP-K1-alpha = biological target: T15, MAPKAP-K1-alpha (Homo sapiens, UniProt Q15418)
T15 construct: purchased Caliper Life Sciences
Procedure: as §1, §2, §3, §4

MAPKAP-K2 = biological target: T16, MAPKAP-K2 (Homo sapiens, UniProt P49137)
T16 construct: purchased Caliper Life Sciences
T16 sequence (P49137 whole entry, species assumed): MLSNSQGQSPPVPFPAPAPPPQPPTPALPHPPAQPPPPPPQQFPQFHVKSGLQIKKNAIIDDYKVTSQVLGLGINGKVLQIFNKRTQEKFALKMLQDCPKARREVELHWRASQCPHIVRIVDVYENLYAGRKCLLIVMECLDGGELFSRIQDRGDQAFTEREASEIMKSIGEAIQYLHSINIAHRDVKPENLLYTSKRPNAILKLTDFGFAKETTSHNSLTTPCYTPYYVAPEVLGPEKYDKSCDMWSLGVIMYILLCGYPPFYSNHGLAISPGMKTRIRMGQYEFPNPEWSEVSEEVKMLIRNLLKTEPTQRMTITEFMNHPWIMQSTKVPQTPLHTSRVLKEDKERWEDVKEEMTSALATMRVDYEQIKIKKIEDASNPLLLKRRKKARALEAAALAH
Procedure: as §1, §2, §3, §4

MNK-1 = biological target: T17, MNK-1 (Homo sapiens, UniProt Q9BUB5)
T17 construct: purchased Caliper Life Sciences
T17 sequence (Q9BUB5 whole entry, species assumed): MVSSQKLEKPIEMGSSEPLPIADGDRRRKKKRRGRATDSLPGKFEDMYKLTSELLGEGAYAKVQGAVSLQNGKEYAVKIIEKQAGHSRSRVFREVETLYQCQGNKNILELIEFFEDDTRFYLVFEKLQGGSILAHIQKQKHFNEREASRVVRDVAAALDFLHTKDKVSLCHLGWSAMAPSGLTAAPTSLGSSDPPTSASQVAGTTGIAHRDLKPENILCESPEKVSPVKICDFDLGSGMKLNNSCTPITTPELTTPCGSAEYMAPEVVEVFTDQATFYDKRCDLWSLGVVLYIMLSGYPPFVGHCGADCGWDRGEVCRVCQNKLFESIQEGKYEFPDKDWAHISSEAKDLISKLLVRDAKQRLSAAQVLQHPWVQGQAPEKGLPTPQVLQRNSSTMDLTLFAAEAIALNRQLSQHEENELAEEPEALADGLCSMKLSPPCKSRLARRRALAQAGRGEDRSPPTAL
Procedure: as §1, §2, §3, §4

MNK-2-alpha = biological target: T18, MNK-2-alpha (Homo sapiens, UniProt Q9HBH9)
T18 construct: purchased Caliper Life Sciences
Procedure: as §1, §2, §3, §4

MST4 = biological target: T19, MST4 (Homo sapiens, UniProt Q9P289)
T19 construct: purchased Caliper Life Sciences
T19 sequence (Q9P289 whole entry, species assumed): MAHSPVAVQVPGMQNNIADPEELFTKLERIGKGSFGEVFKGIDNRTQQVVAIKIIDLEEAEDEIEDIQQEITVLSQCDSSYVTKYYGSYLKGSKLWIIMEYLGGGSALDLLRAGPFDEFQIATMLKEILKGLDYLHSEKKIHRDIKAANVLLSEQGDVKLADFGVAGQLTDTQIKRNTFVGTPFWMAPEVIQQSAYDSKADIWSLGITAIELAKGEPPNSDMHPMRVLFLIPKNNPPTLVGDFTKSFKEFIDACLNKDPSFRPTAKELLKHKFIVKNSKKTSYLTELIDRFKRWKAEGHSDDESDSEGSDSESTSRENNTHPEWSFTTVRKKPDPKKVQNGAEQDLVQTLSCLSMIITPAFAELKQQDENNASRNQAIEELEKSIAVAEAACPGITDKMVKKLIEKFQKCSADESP
Procedure: as §1, §2, §3, §4

Nek2a = biological target: T20, Nek2a (Homo sapiens, UniProt P51955)
T20 construct: purchased Caliper Life Sciences
Procedure: as §1, §2, §3, §4

PAK4 = biological target: T21, PAK4 (Homo sapiens, UniProt O96013)
T21 construct: purchased Caliper Life Sciences
Procedure: as §1, §2, §3, §4

PBK = biological target: T22, PBK (Homo sapiens, UniProt Q96KB5)
T22 construct: purchased Caliper Life Sciences
Procedure: as §1, §2, §3, §4

PDK1 = biological target: T23, PDK1 (Homo sapiens, UniProt O15530)
T23 construct: purchased Caliper Life Sciences
Procedure: as §1, §2, §3, §4

PKA = biological target: T24, PKA (Homo sapiens, UniProt P17612)
T24 construct: purchased Caliper Life Sciences
Procedure: as §1, §2, §3, §4

PKB-beta = biological target: T25, PKB-beta (Homo sapiens, UniProt P31751)
T25 construct: purchased Caliper Life Sciences
Procedure: as §1, §2, §3, §4

PRAK = biological target: T26, PRAK (Homo sapiens, UniProt Q8IW41)
T26 construct: purchased Caliper Life Sciences
T26 sequence (Q8IW41 whole entry, species assumed): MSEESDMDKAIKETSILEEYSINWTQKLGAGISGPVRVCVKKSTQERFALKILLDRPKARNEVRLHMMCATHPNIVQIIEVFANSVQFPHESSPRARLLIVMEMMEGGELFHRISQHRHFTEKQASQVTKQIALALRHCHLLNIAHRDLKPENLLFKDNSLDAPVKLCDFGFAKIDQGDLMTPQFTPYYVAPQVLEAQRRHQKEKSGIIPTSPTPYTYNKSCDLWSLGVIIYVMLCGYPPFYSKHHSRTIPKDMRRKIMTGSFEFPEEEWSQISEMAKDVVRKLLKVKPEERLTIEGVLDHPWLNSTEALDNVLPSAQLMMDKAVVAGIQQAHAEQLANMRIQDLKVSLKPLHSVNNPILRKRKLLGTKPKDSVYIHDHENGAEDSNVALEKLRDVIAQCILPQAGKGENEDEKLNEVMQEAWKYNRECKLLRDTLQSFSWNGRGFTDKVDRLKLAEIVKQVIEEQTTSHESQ
Procedure: as §1, §2, §3, §4

Pim-1 = biological target: T27, Pim-1 (Homo sapiens, UniProt P11309)
T27 construct: purchased Caliper Life Sciences
Procedure: as §1, §2, §3, §4

Pim-3 = biological target: T28, Pim-3 (Homo sapiens, UniProt Q86V86)
T28 construct: purchased Caliper Life Sciences
Procedure: as §1, §2, §3, §4

S6K1 = biological target: T29, S6K1 (Homo sapiens, UniProt P23443)
T29 construct: purchased Caliper Life Sciences
Procedure: as §1, §2, §3, §4

SAPK4 = biological target: T30, SAPK4 (Homo sapiens, UniProt O15264)
T30 construct: purchased Caliper Life Sciences
Procedure: as §1, §2, §3, §4

SRC = biological target: T31, SRC (Homo sapiens, UniProt P12931)
T31 construct: purchased Caliper Life Sciences
T31 sequence (P12931 whole entry, species assumed): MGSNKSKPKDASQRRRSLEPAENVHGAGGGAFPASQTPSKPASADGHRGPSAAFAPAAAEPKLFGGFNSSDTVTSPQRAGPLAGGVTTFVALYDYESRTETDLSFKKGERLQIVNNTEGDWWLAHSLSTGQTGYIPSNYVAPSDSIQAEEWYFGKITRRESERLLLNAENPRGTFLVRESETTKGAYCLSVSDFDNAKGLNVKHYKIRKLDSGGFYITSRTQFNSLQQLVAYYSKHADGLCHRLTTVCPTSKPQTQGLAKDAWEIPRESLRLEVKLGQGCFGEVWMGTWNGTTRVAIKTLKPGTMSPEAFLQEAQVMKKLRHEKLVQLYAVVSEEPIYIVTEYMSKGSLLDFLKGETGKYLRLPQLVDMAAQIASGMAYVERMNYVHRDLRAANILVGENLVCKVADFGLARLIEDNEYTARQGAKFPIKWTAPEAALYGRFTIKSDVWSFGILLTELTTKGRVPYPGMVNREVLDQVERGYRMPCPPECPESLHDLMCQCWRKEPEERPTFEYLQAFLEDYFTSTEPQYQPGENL
Procedure: as §1, §2, §3, §4

Syk = biological target: T32, Syk (Homo sapiens, UniProt P43405)
T32 construct: purchased Caliper Life Sciences
Procedure: as §1, §2, §3, §4

VEGFR = tested on: VEGFR
Procedure: as §1, §2, §3, §4

T1 sequence (Q8IWQ3 whole entry, species assumed): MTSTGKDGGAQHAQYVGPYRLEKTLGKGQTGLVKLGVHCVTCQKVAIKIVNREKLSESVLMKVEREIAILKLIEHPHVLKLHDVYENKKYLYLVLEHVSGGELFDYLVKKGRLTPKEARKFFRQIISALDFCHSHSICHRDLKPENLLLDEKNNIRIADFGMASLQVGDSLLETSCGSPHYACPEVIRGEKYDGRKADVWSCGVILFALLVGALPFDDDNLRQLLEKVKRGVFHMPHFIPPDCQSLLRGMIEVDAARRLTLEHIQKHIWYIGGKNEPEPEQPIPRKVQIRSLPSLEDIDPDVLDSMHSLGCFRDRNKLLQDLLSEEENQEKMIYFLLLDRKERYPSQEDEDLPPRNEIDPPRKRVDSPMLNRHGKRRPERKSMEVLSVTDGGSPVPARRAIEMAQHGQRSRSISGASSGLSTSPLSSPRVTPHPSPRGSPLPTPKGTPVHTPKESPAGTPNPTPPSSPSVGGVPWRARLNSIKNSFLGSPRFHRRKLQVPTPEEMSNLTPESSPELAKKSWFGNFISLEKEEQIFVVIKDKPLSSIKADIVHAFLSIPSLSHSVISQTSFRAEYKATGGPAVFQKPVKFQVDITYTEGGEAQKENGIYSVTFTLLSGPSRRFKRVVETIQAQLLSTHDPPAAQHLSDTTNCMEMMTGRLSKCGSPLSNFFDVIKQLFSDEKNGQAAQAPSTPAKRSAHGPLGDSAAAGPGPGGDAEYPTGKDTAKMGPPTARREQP

SMILES	inhibition at 1 µM (BRSK2)	% inhibition BTK (BTK)	% inhibition CAMKI (CAMKI)	% inhibition CDK2/cyclin A (CDK2/cyclin A)	% inhibition CHK1 (CHK1)	% inhibition CHK2 (CHK2)	inhibition at 1 µM (CSK)	inhibition at 1 µM (DYRK1-alpha)	inhibition at 1 µM (DYRK3)	inhibition at 1 µM (IGF1-R)	inhibition at 1 µM (IKK-beta)	inhibition at 1 µM (IRR)	inhibition at 1 µM (LCK)	% inhibition MAPK1 (MAPK1)	% inhibition MAPK2 (MAPK2)	% inhibition MAPK8 (MAPK8)	% inhibition MAPKAP-K1-alpha (MAPKAP-K1-alpha)	% inhibition MAPKAP-K2 (MAPKAP-K2)	% inhibition MNK-1 (MNK-1)	% inhibition MNK-2-alpha (MNK-2-alpha)	other results
Fc1cnc2nc1NC1CCCC(C1)OC/C=C\COc1cccc(c1)N2 (single isomer, unassigned) [Example 33, (16Z)-6-fluoro-14,19-dioxa-2,4,8,26-tetraazatetracyclo[18.3.1.1˜3,7˜0.1˜9,13˜]hexacosa-1(24),3(26),4,6,16,20,22-heptaene]	81%	37%	93%	60%	98%	77%	86%	86%	99%	82%	78%	69%	54%	91%	79%	61%	56%	100%	95%	81%	% inhibition MST4 (MST4): 89%; % inhibition Nek2a (Nek2a): 82%; % inhibition PAK4 (PAK4): 81%; % inhibition PBK (PBK): 89%; % inhibition PDK1 (PDK1): 91%; % inhibition PKA (PKA): 82%; % inhibition PKB-beta (PKB-beta): 85%; % inhibition PRAK (PRAK): 80%; % inhibition Pim-1 (Pim-1): 65%; % inhibition Pim-3 (Pim-3): 84%; inhibition at 1 µM (S6K1): 74%; inhibition at 1 µM (SAPK4): 79%; inhibition at 1 µM (SRC): 58%; inhibition at 1 µM (Syk): 84%; % inhibition VEGFR (VEGFR): 49%
NC(=O)[C@H]1[C@H]2C[C@H]3[C@H]1Nc1nc(ncc1F)Nc1cccc(c1)CSS[C@@H]3C2 [Example 10]	26%	2%	73%	94%	73%	12%	56%	83%	78%	2%	82%	72%	14%	78%	90%	9%	12%	88%	98%	82%	% inhibition MST4 (MST4): 59%; % inhibition Nek2a (Nek2a): 66%; % inhibition PAK4 (PAK4): 38%; % inhibition PBK (PBK): 99%; % inhibition PDK1 (PDK1): 73%; % inhibition PKA (PKA): 72%; % inhibition PKB-beta (PKB-beta): 101%; % inhibition PRAK (PRAK): 84%; % inhibition Pim-1 (Pim-1): 61%; % inhibition Pim-3 (Pim-3): 63%; inhibition at 1 µM (S6K1): 94%; inhibition at 1 µM (SAPK4): 44%; inhibition at 1 µM (SRC): 14%; inhibition at 1 µM (Syk): 52%; % inhibition VEGFR (VEGFR): 15%
